Assay results as given in PubChem BioAssay (NCI).
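The compound was tested at five concentrations on cells cultured in 96-well plates, with a 48-hour exposure period. TGI: concentration producing complete growth inhibition.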

What was measured:
Assay in all cases: NCI tumour cell line growth inhibition, 48 h
[1] = test system: KM12 colon
[2] = test system: HT29 colon
[3] = test system: ACHN renal
[4] = test system: DU-145 prostate
[5] = test system: NCI-H23 lung
[6] = test system: NCI-H460 lung
[7] = test system: SNB-75 CNS
[8] = test system: 786-0 renal
[9] = test system: SF-268 CNS
[10] = test system: SK-MEL-2 melanoma
[11] = test system: CCRF-CEM leukemia
[12] = test system: K-562 leukemia
[13] = test system: BT-549 breast
[14] = test system: MALME-3M melanoma
[15] = test system: RPMI-8226 leukemia
[16] = test system: HOP-92 NSCLC
[17] = test system: A549 NSCLC
[18] = test system: MCF7 breast
[19] = test system: UACC-257 melanoma
[20] = test system: TK-10 renal
[21] = test system: SK-MEL-28 melanoma
[22] = test system: UACC-62 melanoma
[23] = test system: OVCAR-5 ovarian
[24] = test system: M14 melanoma
[25] = test system: SW-620 colon
[26] = test system: COLO 205 colon
[27] = test system: NCI-H522 lung
[28] = test system: HL-60(TB) leukemia
[29] = test system: OVCAR-3 ovarian
[30] = test system: HCT-116 colon
[31] = test system: HS 578T breast
[32] = test system: OVCAR-8 ovarian
[33] = test system: CAKI-1 renal
[34] = test system: IGROV1 ovarian
[35] = test system: SF-539 CNS
[36] = test system: MDA-MB-435
[37] = test system: SK-MEL-5 melanoma
[38] = test system: A498 renal
[39] = test system: HCC-2998 colon
[40] = test system: OVCAR-4 ovarian
[41] = test system: SN12C renal
[42] = test system: T-47D breast
[43] = test system: MDA-MB-231 breast
[44] = test system: SNB-19 CNS
[45] = test system: NCI-H226 lung
[46] = test system: EKVX NSCLC
[47] = test system: U251 CNS
[48] = test system: SK-OV-3 ovarian
[49] = test system: PC-3 prostate
[50] = test system: LOX IMVI melanoma
[51] = test system: SF-295 CNS
[52] = test system: UO-31 renal
[53] = test system: HCT-15 colon
[54] = test system: MOLT-4 leukemia
[55] = test system: NCI/ADR-RES ovarian

Measured: TGI

O=C1C[C@@H](c2ccc(O)cc2)[C@@]2(O1)C(=O)O[C@H]([C@@H](O)CO)[C@@H]2O
> 100 µM: all assays above
